From patent US20230116760A1, “STRUCTURALLY-STABILIZED ONCOLYTIC PEPTIDES AND USES THEREOF” (Dana-Farber Cancer Institute, Inc., priority 2019, published 2023)
Bridge positions count the residues as written; N and C are the ends. Square brackets hold non-standard residues; d marks the D form. Ends that are not written are not given here. Peptide text beside a SMILES is read from it. S5 = C=CCCC[C@](C)(N)C(=O)O; Nle = CCCC[C@H](N)C(=O)O

Columns and labels:
red blood cells (RBCs) = format: cell-based, human
Description: RBC hemolysis assay: To assess the hemolytic activity of a structurally-stabilized peptide described herein, a red blood cell (RBV) hemolysis assay can be used. Human blood samples are centrifuged to isolate RBCs, which are then washed and suspended in phosphate-buffered saline to yield a 1% (v/v) suspension. The suspension is added to serial dilutions of peptide stocks in water in clear round-bottom polypropylene 96-well plates and the plates incubated for 1 hour at 37° C. The plates are then centrifuged and the supernatant isolated to determine the amount of hemoglobin released using a spectrophotometer (570 nm). Percent hemolysis is calculated as: ([Treated Absorbance−Untreated Control Absorbance]×100)/(1% Triton X-100 Treated Absorbance−Untreated Control Absorbance).
Stapled oncolytic peptide synthesis: Fmoc-based solid-phase peptide synthesis was used to synthesize stapled antimicrobial peptides in accordance with previously reported methods for generating all-hydrocarbon stapled peptides. To achieve the various staple lengths, α-methyl, α-alkenyl amino acids were installed at i, i+4 positions using two S-pentenyl alanine residues (S5). For the stapling reaction, Grubbs 1st generation ruthenium catalyst dissolved in dichloroethane was added to the resin-bound peptides. To ensure maximal conversion, three to five rounds of stapling were performed. The peptides were then cleaved off of the resin using trifluoroacetic acid, precipitated using a hexane:ether (1:1) mixture, air dried, and purified by LC-MS. All peptides were quantified by amino acid analysis. RBC hemolysis assay: Human blood samples were centrifuged to isolate red blood cells (RBCs), which were then washed and suspended in phosphate-buffered saline to yield a 1% (v/v) suspension. The suspension was added to serial dilutions of peptide stocks in water in clear round-bottom polypropylene 96-well plates and the plates incubated for 1 hour at 37° C. The plates were then centrifuged and the supernatant isolated to determine the amount of hemoglobin released using a spectrophotometer (570 nm). Percent hemolysis was calculated as: ([Treated Absorbance−Untreated Control Absorbance]×100)/(1% Triton X-100 Treated Absorbance−Untreated Control Absorbance).

OCI-AML3 cells = assay: LDH release assay of OCI-AML3 cells; format: cell-based, human; details: 90 minutes; for cancer cell lysis by LDH release, compared with parent Mag(i+4)15: 10 and 25 μg/mL, FIG. 6, FIG. 7; for susceptibility of OCI-AML3 cells to iStOPs (LDH release): FIG. 19
Description: (§1) LDH release assay: To assess the release of lactate dehydrogenase (LDH) upon treatment with a structurally-stabilized peptide described herein, an LDH release assay can be used. Cultured cells, including, e.g., cancer cells and HUVEC cells, are plated in 96-well format (2×10^4 cells per well; including overnight incubation for adherent cells) and then treated with serial dilutions of structurally-stabilized peptides in a final volume in a final volume of 100 μL and incubated at 37° C. for the indicated time period (e.g., 90 minutes). The plates are spun down at 1500 rpm for 5 minutes at 4° C., and 80 μL of cell culture media is transferred to a clear plate (Corning), incubated with 80 μL of LDH reagent (Roche) for 15 minutes while shaking, and absorbance is measured at 490 nm on a microplate reader (SpectraMax M5 Microplate Reader, Molecular Devices). LDH release assays, as tailored to specific cancer cell types (OCI-AML3 cells and primary human pediatric B-ALL cells), are exemplified below.
(§2) LDH release assay of OCI-AML3 cells: OCI-AML3 cells are seeded in 96-well plates (2×10^4 cells per well) in RPMI medium containing 5% FBS and treated with structurally-stabilized peptides for 90 minutes. LDH release is quantified by incubating centrifuged (e.g., at 1500 rpm) cell culture medium 1:1 with LDH reagent (Roche), followed by absorbance measurement 490 nm on a microplate reader (Spectramax M5). Percent LDH release was normalized to 1% Triton.
(§3) LDH release assay: Cultured cells, including cancer cells and HUVEC cells, were plated in 96-well format (2×10^4 cells per well; including overnight incubation for adherent cells) and then treated with serial dilutions of Mag(i+4) peptides in a final volume in a final volume of […] and incubated at 37° C. for the indicated time period. The plates were spun down at 1500 rpm for 5 min at 4° C., and 80 μL of cell culture media was transferred to a clear plate (Corning), incubated with 80 μL of LDH reagent (Roche) for 15 min while shaking, and absorbance measured at 490 nm on a microplate reader (SpectraMax M5 Microplate Reader, Molecular Devices). LDH release assays, as tailored to specific cancer cell types, are exemplified below.
as §2, with “were” for “are”, “with” for “with structurally-stabilized”, “peptides having the indicated amino acid sequences” for “peptides”, “was” for “is”, “centrifuged” for “centrifuged (e.g., at 1500 rpm)”, “Triton. Data was pooled from 2 technical replicates.” for “Triton.”

U937 cells = assay: LDH release assay of U937 cells; format: cell-based; details: 10 and 25 μg/mL, 90 minutes, FIG. 6, FIG. 7
Description: as §1, §3

Row | Compound | RBC lysis (red blood cells (RBCs)) | cancer cell lysis by LDH release, compared with parent Mag(i+4)15 (OCI-AML3 cells) | cancer cell lysis by LDH release, compared with parent Mag(i+4)15 (U937 cells) | susceptibility of OCI-AML3 cells to iStOPs (LDH release) (OCI-AML3 cells)
1 | CCCC[C@H](NC(=O)[C@@H](NC(=O)[C@H](CCC(=O)O)NC(=O)CNC(=O)[C@@H](NC(=O)[C@H](Cc1ccccc1)NC(=O)[C@H](C)NC(=O)[C@H](CCCCN)NC(=O)CNC(=O)[C@H](Cc1ccccc1)NC(=O)[C@H](CCCCN)NC(=O)[C@H](CCCCN)NC(=O)[C@H](C)NC(=O)[C@H](CO)NC(=O)[C@H](Cc1c[nH]cn1)NC(=O)[C@H](CC(C)C)NC(=O)[C@]1(C)CCCC=CCCC[C@](C)(N)C(=O)N[C@@H]([C@@H](C)CC)C(=O)NCC(=O)N[C@@H](CCCCN)C(=O)N1)C(C)C)[C@@H](C)CC)C(=O)N[C@@H](CC(N)=O)C(=O)N[C@@H](CO)C(N)=O [Mag(i+4)0, X1IGKX2LHSAKKFGKAFVGEIBNS] (H-[S5]IGK[S5]LHSAKKFGKAFVGEI[Nle]NS-NH2; staple 1-5) | little to no effect on RBCs |  |  | 
2 | CCCC[C@H](NC(=O)[C@@H](NC(=O)[C@H](CCC(=O)O)NC(=O)CNC(=O)[C@@H](NC(=O)[C@H](Cc1ccccc1)NC(=O)[C@H](C)NC(=O)[C@H](CCCCN)NC(=O)CNC(=O)[C@H](Cc1ccccc1)NC(=O)[C@H](CCCCN)NC(=O)[C@H](CCCCN)NC(=O)[C@H](C)NC(=O)[C@H](CO)NC(=O)[C@]1(C)CCCC=CCCC[C@](C)(NC(=O)[C@@H](NC(=O)CN)[C@@H](C)CC)C(=O)N[C@@H](CCCCN)C(=O)N[C@@H](Cc2ccccc2)C(=O)N[C@@H](CC(C)C)C(=O)N1)C(C)C)[C@@H](C)CC)C(=O)N[C@@H](CC(N)=O)C(=O)N[C@@H](CO)C(N)=O [Mag(i+4)2, GIX1KFLX2SAKKFGKAFVGEIBNS] (H-GI[S5]KFL[S5]SAKKFGKAFVGEI[Nle]NS-NH2; staple 3-7) | little to no effect on RBCs |  |  | 
3 | GIEKFLHSAKKFGKAX1VGEX2BNS (GIEKFLHSAKKFGKA[S5]VGE[S5][Nle]NS; staple 16-20) [Mag(i+4)15 (G3E)] |  | retained potent membrane lysis | retained potent membrane lysis | 
4 | GIGKFLESAKKFGKAX1VGEX2BNS (GIGKFLESAKKFGKA[S5]VGE[S5][Nle]NS; staple 16-20) [Mag(i+4)15 (H7E)] |  | retained potent membrane lysis | retained potent membrane lysis | especially potent and selective activity
5 | GIGKFLHEAKKFGKAX1VGEX2BNS (GIGKFLHEAKKFGKA[S5]VGE[S5][Nle]NS; staple 16-20) [Mag(i+4)15 (S8E)] |  | retained potent membrane lysis | retained potent membrane lysis | 
6 | GIGKFLHKAKKFGKAX1VGEX2BNS (GIGKFLHKAKKFGKA[S5]VGE[S5][Nle]NS; staple 16-20) [Mag(i+4)15 (S8K)] |  | retain substantial, if not all, oncolytic activity | retain substantial, if not all, oncolytic activity | 
7 | GIGKFLHSAKKFGKAX1VEEX2BNS (GIGKFLHSAKKFGKA[S5]VEE[S5][Nle]NS; staple 16-20) [Mag(i+4)15 (G18E)] |  | retained potent membrane lysis | retained potent membrane lysis | especially potent and selective activity
8 | GIGKFLHSAKKFGKAX1VGEX2BES (GIGKFLHSAKKFGKA[S5]VGE[S5][Nle]ES; staple 16-20) [Mag(i+4)15 (N22E)] |  | retained potent membrane lysis | retained potent membrane lysis | especially potent and selective activity
9 | GIGKFLHSAKKFGKAX1VGEX2BKS (GIGKFLHSAKKFGKA[S5]VGE[S5][Nle]KS; staple 16-20) [Mag(i+4)15 (N22K)] |  | retain substantial, if not all, oncolytic activity | retain substantial, if not all, oncolytic activity | 
10 | GIGKFLHSAKKFGKAX1VGEX2BNE (GIGKFLHSAKKFGKA[S5]VGE[S5][Nle]NE; staple 16-20) [Mag(i+4)15 (S23E)] |  | retained substantial or all cancer cell killing activity | retained substantial or all cancer cell killing activity | especially potent and selective activity
11 | GIGKFLHSAKKFGKAX1VGEX2KNS (GIGKFLHSAKKFGKA[S5]VGE[S5]KNS; staple 16-20) [Mag(i+4)15 (M21K)] |  | retain substantial, if not all, oncolytic activity | retain substantial, if not all, oncolytic activity | 
12 | GIGKFLHSAKKFGKAX1VGKX2BNS (GIGKFLHSAKKFGKA[S5]VGK[S5][Nle]NS; staple 16-20) [Mag(i+4)15 (E19K)] |  | retain substantial, if not all, oncolytic activity | retain substantial, if not all, oncolytic activity | 
13 | GIGKFLHSAKKFGKAX1VKEX2BNS (GIGKFLHSAKKFGKA[S5]VKE[S5][Nle]NS; staple 16-20) [Mag(i+4)15 (G18K)] |  | retain substantial, if not all, oncolytic activity | retain substantial, if not all, oncolytic activity | 
14 | GIGKFLHSAKKFGKEX1VGEX2BNS (GIGKFLHSAKKFGKE[S5]VGE[S5][Nle]NS; staple 16-20) [Mag(i+4)15 (A15E)] |  | retained substantial or all cancer cell killing activity | retained substantial or all cancer cell killing activity | especially potent and selective activity
15 | GIGKFLHSAKKFGKKX1VGEX2BNS (GIGKFLHSAKKFGKK[S5]VGE[S5][Nle]NS; staple 16-20) [Mag(i+4)15 (A15K)] |  | retain substantial, if not all, oncolytic activity | retain substantial, if not all, oncolytic activity | 
16 | GIGKFLKSAKKFGKAX1VGEX2BNS (GIGKFLKSAKKFGKA[S5]VGE[S5][Nle]NS; staple 16-20) [Mag(i+4)15 (H7K)] |  | retain substantial, if not all, oncolytic activity | retain substantial, if not all, oncolytic activity | 
17 | GIKKFLHSAKKFGKAX1VGEX2BNS (GIKKFLHSAKKFGKA[S5]VGE[S5][Nle]NS; staple 16-20) [Mag(i+4)15 (G3K)] |  | retain substantial, if not all, oncolytic activity | retain substantial, if not all, oncolytic activity | 
18 | iStOP 11: integrated StOP of Magainin II combining staples and point mutation(s); sequence only in FIG. 17B ([S5]IGK[S5]LHSKKKFGKA[S5]VGE[S5][Nle]NS; staple 1-5, 16-20) |  |  |  | especially potent and selective activity
